Where two headings read alike, the source gives them in different places.
Columns and labels:
[1] = biological target: acetylcholinesterase (AchE) (Homo sapiens, UniProt P22303); assay: Acetylcholinesterase activity, in vitro colorimetric Ellman method; format: biochemical; settings: AchE 0.22 U/ml, ATCl 1 mM, 20 min
Source text: The aim of this assay is to compare acetylcholinesterase (AchE) activity in the presence of the composition according to the invention, with a safranal/cannabidiol (CBD) ratio of 0.03, with acetylcholinesterase activity in the presence of safranal or CBD alone.
AchE activity was monitored and measured in vitro by colorimetric reaction using the Ellman method. Acetylthiocholine (ATCl) is degraded to thiocholine and acetic acid by AChE. The thiocholine then reacts with the dithiobisnitrobenzoic ion (DTNB) and the resulting ion (TNB) gives a yellow coloration. In a 96-well plate, the following amounts were deposited in each well: 55 μl buffer (Tris-HCl 50 mM), 75 μl DTNB (5 mM), 25 μl AchE (0.22 U/ml), 25 μl test sample (buffer or safranal (1.2 μg/ml), or CBD (40 μg/ml), or safranal (1.2 μg/ml)+CBD (40 μg/ml).
At the last moment, 25 μL of ATCl (1 mM) was added to initiate the reaction. The absorbance was then monitored at 405 nM for 20 min. For each well, the absorbance values over time (Ax) are normalized relative to the first absorbance measurement (AT0) according to the following formula: Normalized absorbance (An)=Ax−AT0. The percentage of AchE inhibition was determined by comparing the slopes of the curves (in the linear part) against the control according to the following equation [Math 1]. […]

[2] = test system: anxiety symptoms in healthy adults under stress; settings: CBD alone without THC, cited from earlier work

acetylcholinesterase (AchE), sequence (P22303 32-614, species assumed): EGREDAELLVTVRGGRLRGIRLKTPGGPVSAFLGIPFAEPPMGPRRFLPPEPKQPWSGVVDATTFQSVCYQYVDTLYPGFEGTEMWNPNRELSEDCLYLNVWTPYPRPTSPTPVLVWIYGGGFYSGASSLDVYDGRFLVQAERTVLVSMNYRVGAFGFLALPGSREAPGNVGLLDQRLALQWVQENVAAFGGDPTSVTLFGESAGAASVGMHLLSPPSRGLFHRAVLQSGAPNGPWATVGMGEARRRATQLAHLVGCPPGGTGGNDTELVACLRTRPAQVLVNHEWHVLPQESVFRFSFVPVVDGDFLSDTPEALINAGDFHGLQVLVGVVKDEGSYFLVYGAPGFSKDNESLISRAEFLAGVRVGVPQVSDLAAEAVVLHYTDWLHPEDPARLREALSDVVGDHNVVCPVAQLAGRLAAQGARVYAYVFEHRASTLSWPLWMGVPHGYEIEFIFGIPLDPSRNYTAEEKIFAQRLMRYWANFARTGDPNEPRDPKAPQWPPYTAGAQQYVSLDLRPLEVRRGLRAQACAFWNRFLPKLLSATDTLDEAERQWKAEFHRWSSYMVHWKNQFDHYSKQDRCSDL

Row | SMILES | inhibition at 40 µg/mL ([1]; CBD 40 μg/ml test sample, read-out: decrease in AchE activity (percentage of AchE inhibition relative to control)) [%] | effect on anxiety symptoms ([2]; dose 300 mg) | effect on anxiety symptoms ([2]; higher dose 900 mg) | effect on anxiety symptoms ([2]; lower dose 100 mg) | AchE activity compared with the control ([1]; safranal 1.2 μg/ml test sample)
1 | C=C(C)[C@@H]1CCC(C)=C[C@H]1c1c(O)cc(CCCCC)cc1O [CBD, 2-[(1R,6R)-6-isopropenyl-3-methylcyclohex-2-en-1-yl]-5-pentylbenzene-1,3-diol] | 69.8 | reducing anxiety symptoms | no effect | no effect | 
2 | CC1=C(C=O)C(C)(C)CC=C1 [safranal] |  |  |  |  | unchanged
